One series relates to Tyrosinase. More on the design: method as in PMID 21050756. As to conditions: previously reported, cited from earlier work; for IC50: means of three experiments, read-out: Inhibitory activity [IC50] Tyrosinase.
For series [1], the system named is B16 melanoma cells. In words: Depigmenting activity (melanin content) in B16 melanoma cells. The format is cell-based. As to conditions: for IC50: Mus musculus, 120 h, 5 days, melanin content, read-out: Inhibitory activity [IC50] Depigmentation. As to the method:
The cell pellets were then dissolved in 1 N NaOH in 10% DMSO (500 μL) at 80 °C for 1 h. The relative melanin content was determined by measuring the absorbance at 475 nm with an ELISA reader (Molecular Devices Corp., Menlo Park, CA, USA). A standard synthetic melanin curve (0–500 μg⁄mL) was prepared in triplicate for each experiment.

For series [2], the system named is NO production in LPS-activated RAW264.7 cells. As to the kind of experiment: Inhibition of NO production induced by LPS in RAW264.7 cells (Griess). As to conditions: Mus musculus, LPS 1 μg/mL, 24 h, read-out: Inhibitory activity [IC50] NO. The format is cell-based. As to the method: The nitrite in the culture supernatants was measured by adding Griess reagent (100 μL, 1% sulfanilamide and 0.1% N-[1-naphthyl]-ethylenediamine dihydrochloride in 5% phosphoric acid) to samples of the medium (100 μL) for 10 min at room temperature. The OD at 570 nm (OD570) was measured using a Spectramax 250 microplate reader (Molecular Devices). A standard curve of NO was made with sodium nitrite.
In general terms: Nitrite, measured by Griess reagent, commonly stands in for NO production.

Series [3] is described as follows: Cytotoxicity towards B16 melanoma cells. As to conditions: mouse, read-out: Inhibitory activity [IC50] Cytotoxicity. The format is cell-based.
Series [4] has as its system NF-κB-mediated luciferase activity. In words: NF-κB-mediated luciferase assay in HEK293 cells. The format is cell-based. As to conditions: HEK293 cells transfected with NF-κB-Luc, PMA 0.1 μM, 24 h, read-out: Inhibitory activity [IC50] NF-κB-mediated luciferase activity. As to the method:
HEK293 cells (1 × 10^6 cells/mL) were transfected with plasmids containing NF-κB-Luc, (1 μg/mL each) as well as β-galactosidase (0.5 μg/mL) using the PEI method in a 12-well plate for 48 h, and they were treated with testing compounds in the presence or absence of PMA (0.1 μM) for 24 h. Luciferase assay was performed using the Luciferse Assay System (Promega).

Another series in a line: in vitro. As to conditions: mouse. As to the method: (§1) The cytotoxic effect of kojyl thioether derivatives was then evaluated by a conventional MTT assay. At 3 h prior to culture termination, MTT solution (10 μL, 5 mg/mL in a phosphate buffered-saline, pH 7.4) was added and the cells were continuously cultured until termination. The incubation was halted by the addition of 15% sodium dodecyl sulfate into each well, solubilizing formazan. The absorbance at 570 nm (OD570–630) was measured by a Spectramax 250 microplate reader.

Series [5] relates to B16 melanoma cells. As to the kind of experiment: Cytotoxicity towards B16 melanoma cells. Type of series: cell-based.
Another series relates to iNOS mRNA. As to the kind of experiment: Expression of iNOS mRNA in LPS-activated RAW 264.7 cells (RT-PCR). Type of series: cell-based. As to conditions: 25–100 μM, LPS 1 μg/mL for 6 h. As to the method: RAW 264.7 cells were treated with different concentrations of compound 1 and 2 (25–100 μM) and then stimulated with LPS (1 μg/mL) for 6 h.
The total RNA from the LPS treated-RAW264.7 cells was prepared by adding TRIzol Reagent (Gibco BRL), as per the manufacturer’s instructions. Real-time PCR reactions were conducted using MuLV reverse transcriptase. The primers (Bioneer, Daejeon, Korea) were used as previously reported.

The test system of another series is RAW264.7 cells. As to the kind of experiment: Cytotoxicity in RAW264.7 cells (MTT). As to the method:
as §1

Where two headings read alike, the source gives them in different places.

Usually IC50 stands for the point on the concentration scale where inhibition reaches its midpoint.

With `C[C@@H]1O[C@@H](Oc2c(-c3ccc(O)cc3)oc3cc(O)cc(O)c3c2=O)[C@H](O)[C@H](O)[C@H]1O` [Afzelin (3), kaempferol 3-O-α-L-rhamnopyranoside], in the series with Tyrosinase, the “Tyrosinase inhibitory activity (in words)” value is on record as “showed no inhibitory activities”. The IC50 (with B16 melanoma cells [1]; in [2]; in series [3]; in [4] (Homo sapiens)) was greater than 100 µM in each case. The compound also registered an IC50 at 24 h in “in vitro” greater than 100 µM.

`OC[C@H]1O[C@@H](Oc2ccc(O)cc2)[C@H](O)[C@@H](O)[C@@H]1O` [Arbutin, reference compound]: the IC50 was 171 ± 2.1 µM in the series on B16 melanoma cells [1] and greater than 200 µM in [3].

On to `Cc1ccc(S(=O)(=O)/C=C/C#N)cc1` [BAY11-7082, reference compound], for which the IC50 in [4] came to 11.5 ± 0.1 µM.

Take `C[C@@H]1O[C@@H](Oc2cc(O)c3c(=O)c(O[C@@H]4O[C@@H](C)[C@H](O)[C@@H](O)[C@H]4O)c(-c4ccc(O)cc4)oc3c2)[C@H](O)[C@H](O)[C@H]1O` [Kaempferitrin (4), kaempferol-3,7-O-α-dirhamnoside]: the “Tyrosinase inhibitory activity (in words)” value with Tyrosinase is on record as “showed no inhibitory activities”. Also, the IC50 (in the series on B16 melanoma cells [1]; in series [2]; in series [3]; in [4] (Homo sapiens)) was greater than 100 µM throughout. Moreover, in the series “in vitro”, the IC50 at 24 h was greater than 100 µM.

Regarding `O=c1c(O)c(-c2ccc(O)cc2)oc2cc(O)cc(O)c12` [Kaempferol (1), kaempferol], the IC50 at Tyrosinase is 171.4 ± 0.9 µM; in the series on B16 melanoma cells [1], 37.66 ± 0.1 µM; in series [2] it was 15.4 ± 0.2 µM; in [3], 25.6 ± 0.9 µM; in series [4] (Homo sapiens), 90.3 ± 5.1 µM. Moreover, in the series with Tyrosinase, the “Tyrosinase inhibitory activity (in words)” value is on record as “showed tyrosinase inhibitory activities”. Besides, in the series with B16 melanoma cells [1], the “Depigmenting inhibitory activity (in words)” value was “showed inhibitory activity”. In addition, the “Cytotoxicity towards B16 melanoma cells (in words)” value in the series with B16 melanoma cells [5] is listed as “showed cytotoxicity towards B16 melanoma cells”. The “Expression of iNOS mRNA (in words)” value in the series with iNOS mRNA is recorded as “suppressed the expression of iNOS mRNA in a dose-dependent manner”. The compound further displayed an IC50 at 24 h in the series “in vitro” (RAW264.7 cells) greater than 100 µM. Further, in the series on RAW264.7 cells (RAW264.7 cells), the “Cytotoxicity in the NO assay cells (in words)” value is “without cytotoxicity”.

For the compound `CC(=O)CCCCn1c(=O)c2c(ncn2C)n(C)c1=O` [Pentoxifylline, pentoxifylline, reference compound], in series [2], the IC50 turned out to be 446 ± 1.1 µM. The IC50 at 24 h in the series “in vitro” (RAW264.7 cells) is greater than 1000 µM.

`C[C@@H]1O[C@@H](Oc2cc(O)c3c(=O)c(O)c(-c4ccc(O)cc4)oc3c2)[C@H](O)[C@H](O)[C@H]1O` [α-Rhamnoisorobin (2), kaempferol 7-O-α-L-rhamnopyranoside]: the IC50 on Tyrosinase is greater than 400 µM; in the series on B16 melanoma cells [1], 39.5 ± 0.4 µM; in series [2], 37.7 ± 2 µM; in series [3] it was 22.9 ± 1.3 µM; in series [4] (Homo sapiens), 36.2 ± 3.3 µM. Besides, the “Tyrosinase inhibitory activity (in words)” value with Tyrosinase is “showed tyrosinase inhibitory activities”. Further, the “Depigmenting inhibitory activity (in words)” value with B16 melanoma cells [1] is recorded as “showed inhibitory activity”. Besides, the “Cytotoxicity towards B16 melanoma cells (in words)” value in the series on B16 melanoma cells [5] is given as “showed cytotoxicity towards B16 melanoma cells”. Further, the “Expression of iNOS mRNA (in words)” value with iNOS mRNA was “suppressed the expression of iNOS mRNA in a dose-dependent manner”. Besides, the IC50 at 24 h in the series “in vitro” is greater than 100 µM. For the same compound, the “Cytotoxicity in the NO assay cells (in words)” value with RAW264.7 cells is “without cytotoxicity”.

Values taken from paper PMC6260593, “Kaempferol and Kaempferol Rhamnosides with Depigmenting and Anti-Inflammatory Properties” (Molecules, 2011).
